# Assay results from patent publication US12350273B2, “Treatment of SMA” (Hoffmann-La Roche Inc., priority 2017, dated 2025).
# What was measured:
# SMN protein = SMN protein (HTRF) in brain and quadriceps muscle of SMNΔ7 mice; format: in vivo
# Description: FIG. 1A-FIG. 1D: Increase in SMN Protein Expression In Vivo • HET=heterogygous. • C/C-allele mice and SMNΔ7 mice were treated with RO7034067. One hour after the last dose, brains and quadriceps muscles were collected and levels of SMN protein were assessed by HTRF. FIG. 1A. SMN protein in brains of C/C-allele mice. FIG. 1B. SMN protein in brains of SMNΔ7 mice. FIG. 1C. SMN protein in quadriceps muscle of C/C-allele mice. FIG. 1D. SMN protein in quadriceps muscle of SMNΔ7 mice. Data represent means±SEM of 5-6 animals per group and are expressed as fold change vs. vehicle-treated controls. *=p<0.05, **=p<0.01, ***=p<0.001 vs. untreated controls.
# Adult C/C-allele mice were treated for 10 days with vehicle or RO7034067 (1, 3 or 10 mg/kg per os [PO], daily), and PND3 SMNΔ7 mice were treated for 7 days with vehicle or RO7034067 (0.1, 0.3, 1 or 3 mg/kg intraperitoneal [IP], daily). […] In SMNΔ7 mice, the SMN protein increase was only partial in both brain and muscle, reaching approximately 43% (brain) and 55% (muscle) of protein levels in heterozygous mice.
# [1] = Stability of test item formulations; format: physicochemical; conditions: formulations 0.025 to 5 mg/mL, 2 to 8° C., absence of oxygen (under nitrogen)
# Description: The test item was formulated as a solution in 10 mM ascorbic acid/0.0064 mg/mL sodium thiosulfate at pH 3. The formulations were stored at 2 to 8° C. with absence of oxygen (under nitrogen), protected from the light in a sealed container. They were allowed to reach room temperature prior to dosing and were stirred on arrival at the animal room and then continuously throughout dosing.
# Cynomolgus monkey iPSCs = test: Cell cycle analysis of Cynomolgus monkey iPSCs (flow cytometry); format: cell-based; conditions: for percentage of events in G1 phase, mean / percentage of events in G2 phase, mean / percentage of events in S phase, mean: Cynomolgus monkey iPSCs, 24 h
# Description: For the analysis of the cell cycle, monkey stem cells were detached with Accutase (Stem Cell Technologies) and plated at 15000 cells/cm2 in 6 well plates coated with Matrigel (BD Biosciences) in MT medium supplemented with 10 ng/ml ActivinA, 15 ng/ml FGF2, and 10 μM Rock inhibitor. Cells were expanded for 1 day and then synchronized by starvation for 7 h in MT medium without supplements FGF2 and ActivinA. Before flow cytometry, cells were incubated for 24 h with fresh MT medium containing supplements FGF2 and ActivinA and test items at 80 nM, 400 nM, and 2000 nM or 30 nM rapamycin as positive control to arrest cells in G1 phase. Human stem cells were detached with Accutase (Stem Cell Technologies) and plated at 40000 cells/cm2 in 6 well plates coated with Matrigel (BD Biosciences) in mTeSR1 supplemented with 10 μM Rock Inhibitor Y-27632 (Sigma-Aldrich). Cells were expanded for 3 days with daily medium change. Since human iPSCs lose their properties during starvation by growth factor withdrawal, stem cells were synchronized with 200 ng/ml Nocodazole (Sigma-Aldrich) for 5 h and washed subsequently 2 times with mTesR1 Medium. Before flow cytometry, cells were incubated for 24 h with fresh TesR1 medium containing test items at 80 nM, 400 nM, and 2000 nM or 30 nM rapamycin as positive control to arrest cells in G1 phase.
# For cell cycle analysis, human iPSCs were washed with PBS, detached with Accutase (Stem Cell Technologies) and collected by centrifugation. Cells were stained for 1 h at 37° C. with 600 ul of 7 AAD/Saponin/RNAse mix ([…] 7 AAD (#559925, BD), 50 μg/ml RNase, and 0.03% Saponin dissolved in FACS buffer (PBS, 5% FBS, 10 mM Hepes)). Cynomolgus monkey iPSCs were washed with PBS, detached with Accutase (Stem Cell Technologies) and collected by centrifugation. Cells were stained for 30 min at 37° C. in 300 ul standard MT medium (with FGF2 and ActivinA) containing 1 ul Vybrant Dye Cycle Violet Stain (#V35003, 1000× stock, Invitrogen) per ml medium. Additionally 2 ul 7 AAD (50 μg/ml 7 AAD) were added without permeabilization to label dead cells; cells were incubated for 10 min at 37° C. Flow cytometry analysis was performed using a Canto II cytometer (BD Biosciences) and data were analysed with the FlowJo software.
# MADD gene transcripts = test: 2-week dose-range finding toxicity study in rat: MADD splicing in spleen, duodenum, testis; format: in vivo; conditions: rats treated 2 weeks, highest dose of 7.5 mg/kg/day
# Description: Gene expression analysis was performed in spleen, duodenum, and testis in rats treated for 2 weeks (MADD gene). […] The changes in splicing of MADD transcripts are consistent with the observations of apoptosis in the GI tract observed at the same dose since MADD gene products have been reported to interfere with the apoptosis processes.
# human RPE cells = test: Lysosomal function in human RPE cells in vitro; format: cell-based
compound,measurement,setting,value
"Cc1cn2nc(-c3cc(=O)n4cc(N5CCNC6(CC6)C5)ccc4n3)cc(C)c2n1 [RO7034067, 7-(4,7-diazaspiro[2.5]octan-7-yl)-2-(2,8-dimethylimidazo[1,2-b]pyridazin-6-yl)pyrido[1,2-a]pyrimidin-4-one]",SMN protein in brain as share of protein levels in heterozygous mice,"SMN protein; SMNΔ7 mice, brain",approximately 43%
same,SMN protein in muscle as share of protein levels in heterozygous mice,"SMN protein; SMNΔ7 mice, muscle",~55%
same,"SMN protein levels in brain and muscle tissue, maximum effect","SMN protein; neonatal SMNΔ7 mice, 1-3 mg/kg IP daily, 7 days",2-3 fold
same,increase in SMN protein possible,SMN protein; severe SMNΔ7 mouse model,more than 100%
same,time formulations were stable,[1],up to 4 weeks
same,"percentage of events in G1 phase, mean",Cynomolgus monkey iPSCs; 80 nM,33.8%
same,"percentage of events in G2 phase, mean",Cynomolgus monkey iPSCs; 80 nM,52.2%
same,"percentage of events in S phase, mean",Cynomolgus monkey iPSCs; 80 nM,14.0%
same,"percentage of events in G1 phase, mean",Cynomolgus monkey iPSCs; 400 nM,30.3%
same,"percentage of events in G2 phase, mean",Cynomolgus monkey iPSCs; 400 nM,55.8%
same,"percentage of events in S phase, mean",Cynomolgus monkey iPSCs; 400 nM,14.0%
same,"percentage of events in G1 phase, mean",Cynomolgus monkey iPSCs; 2000 nM,25.3%
same,"percentage of events in G2 phase, mean",Cynomolgus monkey iPSCs; 2000 nM,61.3%
same,"percentage of events in S phase, mean",Cynomolgus monkey iPSCs; 2000 nM,13.4%
same,effect on cell cycle,"Cynomolgus monkey iPSCs; monkey iPSCs, concentration-dependent",cell cycle arrest in G2 phase
same,gene expression analysis of MADD gene transcripts,MADD gene transcripts,splicing response
same,effect on human RPE cells,human RPE cells,Impairment of lysosomal function/autophagosomal accumulation
